Assay results as given in ChEMBL document CHEMBL6127053, “Discovery of orally bioavailable phosphonate prodrugs of potent ENPP1 inhibitors for cancer treatment” (Eur J Med Chem, 2024).
≈ marks a conversion by molar mass, not a printed value.

Key:
Cytochrome P450 2C9 = Cytochrome P450 2C9 (Homo sapiens, UniProt P11712); experiment: Inhibition of CYP2C9 (unknown origin); assay type: ADME
Cytochrome P450 2C19 = Cytochrome P450 2C19 (Homo sapiens, UniProt P33261); experiment: Inhibition of CYP2C19 (unknown origin); assay type: ADME
[1] = target: T1, Ectonucleotide pyrophosphatase/phosphodiesterase family member 1 (Homo sapiens, UniProt P22413); experiment: Inhibition of ECD-His-tagged human recombinant ENPP1 using 2',3'-cGAMP as substrate preincubated with enzyme for 15 mins followed by substrate addition and incubated in R1 reaction buffer for 1 hr and treated in R2 reaction buffer for 1 hr measured at pH 7.5 by luminescence based analysis
T1 sequence (P22413 whole entry): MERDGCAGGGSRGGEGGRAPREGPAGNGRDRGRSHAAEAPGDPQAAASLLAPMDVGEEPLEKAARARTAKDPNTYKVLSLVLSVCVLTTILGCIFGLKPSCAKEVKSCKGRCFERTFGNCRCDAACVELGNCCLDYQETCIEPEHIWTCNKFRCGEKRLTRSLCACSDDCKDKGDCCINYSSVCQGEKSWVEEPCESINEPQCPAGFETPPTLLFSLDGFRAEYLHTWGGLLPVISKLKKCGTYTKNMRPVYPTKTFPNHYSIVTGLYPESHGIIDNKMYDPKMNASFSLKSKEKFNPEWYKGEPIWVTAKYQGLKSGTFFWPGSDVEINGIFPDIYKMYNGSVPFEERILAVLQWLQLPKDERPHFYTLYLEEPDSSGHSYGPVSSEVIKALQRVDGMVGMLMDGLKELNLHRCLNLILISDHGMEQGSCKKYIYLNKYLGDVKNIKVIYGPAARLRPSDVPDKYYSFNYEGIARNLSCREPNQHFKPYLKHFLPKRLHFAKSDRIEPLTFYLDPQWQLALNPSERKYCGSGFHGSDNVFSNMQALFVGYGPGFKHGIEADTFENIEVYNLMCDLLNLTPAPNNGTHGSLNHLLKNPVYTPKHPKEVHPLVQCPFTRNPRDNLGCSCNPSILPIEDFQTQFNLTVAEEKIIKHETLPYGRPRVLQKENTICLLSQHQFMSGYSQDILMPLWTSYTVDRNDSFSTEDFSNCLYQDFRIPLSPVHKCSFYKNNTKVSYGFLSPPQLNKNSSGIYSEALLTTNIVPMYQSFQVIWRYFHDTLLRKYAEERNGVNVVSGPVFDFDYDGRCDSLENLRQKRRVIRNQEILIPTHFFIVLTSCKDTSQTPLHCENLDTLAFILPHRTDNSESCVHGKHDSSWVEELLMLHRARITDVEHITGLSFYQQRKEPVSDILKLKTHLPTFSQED

[2] = target: T1, Ectonucleotide pyrophosphatase/phosphodiesterase family member 1; experiment: Inhibition of ENPP1 (unknown origin) at pH 7.5
[3] = target: T2, Ectonucleotide pyrophosphatase/phosphodiesterase family member 1 (Mus musculus, UniProt P06802)
T2 sequence (P06802 whole entry): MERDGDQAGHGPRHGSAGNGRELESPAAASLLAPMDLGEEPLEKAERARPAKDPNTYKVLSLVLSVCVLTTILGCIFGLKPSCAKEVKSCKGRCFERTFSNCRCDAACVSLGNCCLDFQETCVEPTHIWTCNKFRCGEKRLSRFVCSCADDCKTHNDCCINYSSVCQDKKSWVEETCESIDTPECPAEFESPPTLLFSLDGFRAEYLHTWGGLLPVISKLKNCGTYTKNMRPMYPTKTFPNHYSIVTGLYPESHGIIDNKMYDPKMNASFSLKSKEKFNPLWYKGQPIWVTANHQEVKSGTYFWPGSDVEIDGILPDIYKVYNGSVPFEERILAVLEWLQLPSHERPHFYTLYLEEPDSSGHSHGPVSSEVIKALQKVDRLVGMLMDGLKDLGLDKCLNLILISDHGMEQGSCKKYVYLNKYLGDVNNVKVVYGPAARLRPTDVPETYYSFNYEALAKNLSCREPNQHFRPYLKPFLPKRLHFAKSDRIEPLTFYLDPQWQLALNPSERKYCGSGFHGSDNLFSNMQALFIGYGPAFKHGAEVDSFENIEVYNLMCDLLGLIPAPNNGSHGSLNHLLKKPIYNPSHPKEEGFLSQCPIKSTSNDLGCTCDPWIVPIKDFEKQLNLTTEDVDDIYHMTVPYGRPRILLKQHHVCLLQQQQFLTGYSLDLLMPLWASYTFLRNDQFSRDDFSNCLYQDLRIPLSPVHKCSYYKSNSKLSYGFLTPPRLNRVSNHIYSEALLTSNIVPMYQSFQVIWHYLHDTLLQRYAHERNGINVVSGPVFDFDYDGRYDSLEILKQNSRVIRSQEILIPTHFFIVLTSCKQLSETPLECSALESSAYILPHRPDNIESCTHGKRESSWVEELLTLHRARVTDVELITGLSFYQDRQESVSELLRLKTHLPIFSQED

[4] = target: T1, Ectonucleotide pyrophosphatase/phosphodiesterase family member 1; experiment: Inhibition of ENPP1 (unknown origin) at pH 8.8
Cytochrome P450 2D6 = Cytochrome P450 2D6 (Homo sapiens, UniProt P10635); experiment: Inhibition of CYP2D6 (unknown origin); assay type: ADME
Cytochrome P450 1A2 = target: T3, Cytochrome P450 1A2 (Homo sapiens, UniProt P05177); experiment: Inhibition of CYP1A2 (unknown origin); assay type: ADME
T3 sequence (P05177 whole entry): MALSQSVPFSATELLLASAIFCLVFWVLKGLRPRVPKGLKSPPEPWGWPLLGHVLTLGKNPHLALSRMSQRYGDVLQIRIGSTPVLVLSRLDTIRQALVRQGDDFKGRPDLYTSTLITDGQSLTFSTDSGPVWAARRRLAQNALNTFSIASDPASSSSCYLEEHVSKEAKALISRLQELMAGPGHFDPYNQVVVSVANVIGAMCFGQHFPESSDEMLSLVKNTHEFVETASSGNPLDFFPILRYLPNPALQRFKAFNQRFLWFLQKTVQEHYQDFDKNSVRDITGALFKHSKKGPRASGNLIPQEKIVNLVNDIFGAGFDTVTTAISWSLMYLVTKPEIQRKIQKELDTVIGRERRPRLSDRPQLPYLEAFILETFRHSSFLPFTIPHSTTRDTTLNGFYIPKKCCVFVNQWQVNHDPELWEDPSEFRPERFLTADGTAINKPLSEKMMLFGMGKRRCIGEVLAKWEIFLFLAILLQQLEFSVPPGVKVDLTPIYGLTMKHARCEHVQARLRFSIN

Cytochrome P450 3A4 = Cytochrome P450 3A4 (Homo sapiens, UniProt P08684); experiment: Inhibition of CYP3A4 (unknown origin); assay type: ADME
[5] = target: T1, Ectonucleotide pyrophosphatase/phosphodiesterase family member 1; experiment: Inhibition of human recombinant ENPP1 at pH 8
[6] = target: Voltage-gated inwardly rectifying potassium channel KCNH2 (Homo sapiens, UniProt Q12809); experiment: Inhibition of hERG; assay type: toxicity
[7] = Prodrug conversion in mouse assessed as half-life of (4-((7-Methoxy-1,8-naphthyridin-4yl)oxy)benzyl)phosphonic acid metabolite at 5 mg/kg, po measured for 24 hrs by LC-MS/MS analysis; assay type: ADME, organism-based; conditions: in vivo
[8] = Prodrug conversion in mouse assessed as AUC(0 to t) of (4-((7-Methoxy-1,8-naphthyridin-4yl)oxy)benzyl)phosphonic acid metabolite at 5 mg/kg, po measured for 24 hrs by LC-MS/MS analysis; assay type: ADME, organism-based; conditions: in vivo
[9] = Prodrug conversion in mouse assessed as oral bioavailability of (4-((7-Methoxy-1,8-naphthyridin-4yl)oxy)benzyl)phosphonic acid metabolite at 5 mg/kg measured for 24 hrs by LC-MS/MS analysis; assay type: ADME, organism-based; conditions: in vivo
[10] = Prodrug conversion in rat assessed as half-life of (4-((7-Methoxy-1,8-naphthyridin-4yl)oxy)benzyl)phosphonic acid metabolite at 5 mg/kg, po measured for 24 hrs by LC-MS/MS analysis; assay type: ADME, organism-based; conditions: in vivo
[11] = Prodrug conversion in rat assessed as AUC (0 to t) of (4-((7-Methoxy-1,8-naphthyridin-4yl)oxy)benzyl)phosphonic acid metabolite at 5 mg/kg, po measured for 24 hrs by LC-MS/MS analysis; assay type: ADME, organism-based; conditions: in vivo
[12] = Prodrug conversion in rat assessed as oral bioavailability of (4-((7-Methoxy-1,8-naphthyridin-4yl)oxy)benzyl)phosphonic acid metabolite at 5 mg/kg measured for 24 hrs by LC-MS/MS analysis; assay type: ADME, organism-based; conditions: in vivo
[13] = Prodrug conversion in dog assessed as half-life of (4-((7-Methoxy-1,8-naphthyridin-4yl)oxy)benzyl)phosphonic acid metabolite at 2 mg/kg, po measured for 24 hrs by LC-MS/MS analysis; assay type: ADME, organism-based, Canis lupus familiaris; conditions: in vivo
[14] = Prodrug conversion in dog assessed as AUC(0 to t) of (4-((7-Methoxy-1,8-naphthyridin-4yl)oxy)benzyl)phosphonic acid metabolite at 2 mg/kg, po measured for 24 hrs by LC-MS/MS analysis; assay type: ADME, organism-based, Canis lupus familiaris; conditions: in vivo
[15] = Prodrug conversion in dog assessed as oral bioavailability of (4-((7-Methoxy-1,8-naphthyridin-4yl)oxy)benzyl)phosphonic acid metabolite at 2 mg/kg measured for 24 hrs by LC-MS/MS analysis; assay type: ADME, organism-based, Canis lupus familiaris; conditions: in vivo
Panc02 [16] = experiment: Antitumor activity against mouse Panc02 cells implanted in C57BL/6 mouse assessed as inhibition of tumor growth at 200 mg/kg, po bid for 35 days and measured on day 35; assay type: functional; conditions: Panc02, 840 h, time 35 day, read-out: TGI
Panc02 [17] = experiment: Synergistic antitumor activity against mouse Panc02 cells implanted in C57BL/6 mouse assessed as inhibition of tumor growth at 200 mg/kg, po bid for 35 days and irradiated with 5Gy radiation on days 1,8,15,22,29 and measured on day 35 (reference value: 26%); assay type: functional; conditions: Panc02, light or radiation study, 840 h, time 35 day, read-out: TGI
Panc02 [18] = experiment: Synergistic antitumor activity against mouse Panc02 cells implanted in C57BL/6 mouse assessed as inhibition of tumor growth by measuring combination ratio at 200 mg/kg, po bid for 35 days and irradiated with 5Gy radiation on days 1,8,15,22,29 and measured on day 35; assay type: functional; conditions: time 35 day
[19] = Toxicity in C57BL/6 mouse implanted with mouse Panc02 cells assessed as effect on body weight at 200 mg/kg, po bid for 35 days; assay type: organism-based; conditions: in vivo, 840 h, time 35 day
[20] = Prodrug conversion in C57BL/6 mouse implanted with mouse Panc02 cells assessed as time during which unbound plasma concentration of (4-((7-Methoxy-1,8-naphthyridin-4yl)oxy)benzyl)phosphonic acid metabolite exceeds IC90 for inhibition of ENPP1 in mouse EL4 cells at 200 mg/kg, po bid for 35 days; assay type: ADME, organism-based; conditions: in vivo, 840 h, time 35 day
physchem = conditions: aqueous, pH 7.4
Description: Aqueous solubility of the compound at pH 7.4

Chain of Cytochrome P450 3A4 (P08684 whole entry): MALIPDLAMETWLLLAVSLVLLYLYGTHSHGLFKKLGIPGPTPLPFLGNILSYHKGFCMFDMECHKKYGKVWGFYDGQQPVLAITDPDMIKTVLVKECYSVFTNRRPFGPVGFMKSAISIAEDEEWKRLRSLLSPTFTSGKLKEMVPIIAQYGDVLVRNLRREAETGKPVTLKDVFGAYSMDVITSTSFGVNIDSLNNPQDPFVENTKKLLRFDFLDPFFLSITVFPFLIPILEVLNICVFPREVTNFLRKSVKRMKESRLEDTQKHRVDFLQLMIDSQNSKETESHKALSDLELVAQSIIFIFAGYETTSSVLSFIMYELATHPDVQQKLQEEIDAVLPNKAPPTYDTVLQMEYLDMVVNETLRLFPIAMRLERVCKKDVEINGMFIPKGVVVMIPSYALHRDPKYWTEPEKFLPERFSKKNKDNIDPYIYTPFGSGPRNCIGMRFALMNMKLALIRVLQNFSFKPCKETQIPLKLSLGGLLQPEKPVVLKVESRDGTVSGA
Chain of Cytochrome P450 2D6 (P10635 whole entry): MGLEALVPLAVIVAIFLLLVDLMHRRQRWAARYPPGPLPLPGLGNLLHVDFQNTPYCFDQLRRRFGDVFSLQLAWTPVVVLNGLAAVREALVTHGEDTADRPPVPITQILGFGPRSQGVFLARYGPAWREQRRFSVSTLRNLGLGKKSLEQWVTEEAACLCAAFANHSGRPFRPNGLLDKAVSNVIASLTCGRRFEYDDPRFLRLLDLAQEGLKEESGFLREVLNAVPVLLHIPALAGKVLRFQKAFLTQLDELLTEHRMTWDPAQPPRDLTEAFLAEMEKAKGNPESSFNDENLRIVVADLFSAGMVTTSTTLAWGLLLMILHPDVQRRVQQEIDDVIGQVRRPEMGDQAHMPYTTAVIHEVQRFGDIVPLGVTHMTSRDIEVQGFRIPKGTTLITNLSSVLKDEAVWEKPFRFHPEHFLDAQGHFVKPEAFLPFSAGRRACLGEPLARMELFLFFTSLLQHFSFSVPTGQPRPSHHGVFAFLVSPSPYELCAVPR
Chain of Cytochrome P450 2C19 (P33261 whole entry, the tested form may be a part): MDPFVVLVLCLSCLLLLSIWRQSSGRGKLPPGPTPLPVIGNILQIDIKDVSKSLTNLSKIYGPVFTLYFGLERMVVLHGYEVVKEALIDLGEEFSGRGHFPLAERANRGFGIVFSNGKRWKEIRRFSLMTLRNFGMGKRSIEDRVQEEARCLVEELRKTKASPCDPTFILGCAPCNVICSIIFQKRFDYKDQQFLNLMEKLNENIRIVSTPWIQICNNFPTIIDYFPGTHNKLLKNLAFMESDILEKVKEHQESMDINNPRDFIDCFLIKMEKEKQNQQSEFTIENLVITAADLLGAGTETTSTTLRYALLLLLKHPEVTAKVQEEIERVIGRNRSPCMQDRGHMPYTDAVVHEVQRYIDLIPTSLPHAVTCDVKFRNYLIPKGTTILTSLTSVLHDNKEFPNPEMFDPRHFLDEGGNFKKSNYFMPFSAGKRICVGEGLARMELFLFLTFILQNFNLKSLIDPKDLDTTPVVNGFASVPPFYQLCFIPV
Chain of Cytochrome P450 2C9 (P11712 whole entry): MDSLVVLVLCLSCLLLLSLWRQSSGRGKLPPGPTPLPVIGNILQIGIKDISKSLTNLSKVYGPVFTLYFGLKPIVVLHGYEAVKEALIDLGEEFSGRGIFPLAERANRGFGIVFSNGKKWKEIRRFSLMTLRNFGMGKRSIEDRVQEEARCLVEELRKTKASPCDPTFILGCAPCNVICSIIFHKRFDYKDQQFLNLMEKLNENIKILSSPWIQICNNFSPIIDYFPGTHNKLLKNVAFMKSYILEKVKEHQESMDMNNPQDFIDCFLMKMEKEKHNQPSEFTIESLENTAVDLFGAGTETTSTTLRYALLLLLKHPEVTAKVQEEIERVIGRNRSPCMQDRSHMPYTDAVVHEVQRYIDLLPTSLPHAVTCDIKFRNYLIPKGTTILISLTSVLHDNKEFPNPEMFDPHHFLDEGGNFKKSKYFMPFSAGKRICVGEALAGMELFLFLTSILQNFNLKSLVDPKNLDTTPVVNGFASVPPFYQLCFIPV
Chain of Voltage-gated inwardly rectifying potassium channel KCNH2 (Q12809 whole entry): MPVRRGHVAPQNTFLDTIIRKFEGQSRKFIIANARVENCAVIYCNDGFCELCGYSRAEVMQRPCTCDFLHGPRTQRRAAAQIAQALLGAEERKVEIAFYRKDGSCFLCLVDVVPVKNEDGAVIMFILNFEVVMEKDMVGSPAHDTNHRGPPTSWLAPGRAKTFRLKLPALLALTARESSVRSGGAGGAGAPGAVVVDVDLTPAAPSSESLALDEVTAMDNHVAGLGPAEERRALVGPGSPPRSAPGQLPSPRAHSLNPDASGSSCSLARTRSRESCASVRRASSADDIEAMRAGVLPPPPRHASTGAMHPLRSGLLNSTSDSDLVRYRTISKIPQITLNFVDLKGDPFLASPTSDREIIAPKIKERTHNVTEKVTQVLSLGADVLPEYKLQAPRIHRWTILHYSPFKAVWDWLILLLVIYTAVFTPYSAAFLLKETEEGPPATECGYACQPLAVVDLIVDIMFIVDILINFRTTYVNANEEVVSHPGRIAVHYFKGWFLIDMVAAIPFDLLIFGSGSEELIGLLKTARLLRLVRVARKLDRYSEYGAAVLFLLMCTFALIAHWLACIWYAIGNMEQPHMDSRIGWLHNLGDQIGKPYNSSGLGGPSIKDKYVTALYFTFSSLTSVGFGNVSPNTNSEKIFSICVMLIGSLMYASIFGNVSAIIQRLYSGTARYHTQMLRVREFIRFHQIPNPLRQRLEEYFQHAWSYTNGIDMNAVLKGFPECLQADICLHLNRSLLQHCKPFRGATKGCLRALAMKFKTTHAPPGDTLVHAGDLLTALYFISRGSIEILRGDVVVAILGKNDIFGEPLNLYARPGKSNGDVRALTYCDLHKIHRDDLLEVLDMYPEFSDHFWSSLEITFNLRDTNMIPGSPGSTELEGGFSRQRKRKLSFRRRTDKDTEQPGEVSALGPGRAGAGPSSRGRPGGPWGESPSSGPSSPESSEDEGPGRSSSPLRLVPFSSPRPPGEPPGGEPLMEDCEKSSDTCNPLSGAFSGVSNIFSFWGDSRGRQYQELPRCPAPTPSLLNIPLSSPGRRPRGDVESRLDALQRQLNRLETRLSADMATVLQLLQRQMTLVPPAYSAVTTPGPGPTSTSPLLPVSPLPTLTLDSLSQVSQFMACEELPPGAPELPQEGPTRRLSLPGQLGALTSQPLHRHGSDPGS

Row | IC50 (Cytochrome P450 2C9) [µM] | IC50 (Cytochrome P450 2C19) [µM] | IC50 (Cytochrome P450 2D6) [µM] | IC50 (Cytochrome P450 1A2) [µM] | IC50 (Cytochrome P450 3A4) [µM] | Structure (SMILES) | also measured
1 | 2.3 | 4 | 4.8 | 8.1 | 10.3 | COc1ccc2c(Oc3ccc(CC(=O)NO)cc3)ccnc2c1 | –
2 | > 50 | > 50 | > 50 | > 50 | > 50 | COc1ccc2c(Oc3ccc(CC(=O)NO)cc3)ccnc2n1 | –
3 | > 50 | > 50 | > 50 | > 50 | > 50 | COc1ccc2c(Oc3ccc(CP(=O)(O)O)cc3)ccnc2n1 | IC50 [6]: > 30 µM

Continued, compound first:

Row | Structure (SMILES) | IC50 (Cytochrome P450 2C9) [µM] | IC50 (Cytochrome P450 2C19) [µM] | IC50 (Cytochrome P450 2D6) [µM] | IC50 (Cytochrome P450 1A2) [µM] | IC50 (Cytochrome P450 3A4) [µM] | also measured
4 | COc1ccc2c(Oc3ccc(C4(C(=O)NO)CCCC4)cc3)ccnc2n1 | 9.2 | 8.2 | – | – | – | –
5 | COc1cccc2c(N3CCC(CCP(=O)(O)O)CC3)ncnc12 | – | – | – | – | – | IC50 [1]: 0.0062 µM; Ki [2]: < 0.002 µM; IC50 [3]: 0.0022 µM
6 | NC(=O)c1ccc2c(ncn2Cc2ccc(P(=O)(O)O)cc2)n1 | – | – | – | – | – | Ki [4]: < 0.01 µM
7 | COc1ccc2c(Oc3ccc(NS(N)(=O)=O)cc3)ccnc2c1 | – | – | – | – | – | Ki [5]: < 0.1 µM
8 | COc1ccc2c(Oc3ccc(CP(=O)(OCOC(=O)C(C)(C)C)OCOC(=O)C(C)(C)C)cc3)ccnc2n1 | > 50 | > 50 | > 50 | > 50 | > 50 | IC50 [6]: > 30 µM; t1/2 [7]: 4.2 h; AUCt [8]: 937 ng·h/mL; F [9]: 17%; t1/2 [10]: 4.22 h; AUCt [11]: 5984 ng·h/mL; F [12]: 39.8%; t1/2 [13]: 1.8 h; AUCt [14]: 793 ng·h/mL; F [15]: 21.1%; inhibition in vivo at 200 mg/kg (Panc02 [16]): 11%; inhibition in vivo at 200 mg/kg (Panc02 [17]): 51%; Ratio (Panc02 [18]): 1.2; Activity [19]: Non-Toxic; T>IC90 [20]: 18 h; solubility (physchem): 20.6 µM (≈ 11.8 µg/mL)
